Test results taken from patent US20240240155A1, “Organoid-Derived Monolayers and Uses Thereof” (Hub Organoids IP B.V., priority 2021, published 2024).

Target: T1, OCT2 (Homo sapiens, UniProt O15244)
T1 construct: endogenous in cells; host or cells: human kidney organoid-derived monolayer (donor kidney-C)
T1 sequence (O15244 1-555): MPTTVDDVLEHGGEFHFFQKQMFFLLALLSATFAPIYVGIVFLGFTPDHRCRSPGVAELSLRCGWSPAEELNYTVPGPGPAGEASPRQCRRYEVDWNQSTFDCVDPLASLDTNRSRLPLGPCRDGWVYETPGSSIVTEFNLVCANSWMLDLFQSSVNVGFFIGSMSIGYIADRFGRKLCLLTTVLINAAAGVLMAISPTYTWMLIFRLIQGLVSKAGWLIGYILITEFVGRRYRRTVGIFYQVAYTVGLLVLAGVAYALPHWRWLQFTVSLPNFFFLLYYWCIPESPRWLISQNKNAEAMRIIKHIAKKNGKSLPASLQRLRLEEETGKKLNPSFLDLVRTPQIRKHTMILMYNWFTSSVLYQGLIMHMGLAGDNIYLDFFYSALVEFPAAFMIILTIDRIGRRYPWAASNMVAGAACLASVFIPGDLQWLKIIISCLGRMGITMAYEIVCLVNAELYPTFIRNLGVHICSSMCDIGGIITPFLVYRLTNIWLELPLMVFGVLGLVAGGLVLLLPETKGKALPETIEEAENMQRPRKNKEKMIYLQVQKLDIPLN
Test: Rhodamine transport assay, kidney-C monolayers
Format: cell-based
Details: 1 μM, 30 mins; day 7
Method: FIG. 28 illustrates fluorescence measurements for accumulated intracellular Rhodamine 123 for kidney-C cultures grown in KEM media, with or without addition of 1 uM decitabine (DAC) on day 2 after seeding, in the presence or absence of PSC833 (a specific P-gp inhibitor) and decynium-22 (a specific OCT2 inhibitor). A sample incubated with PBS only (without […]) was used as a negative control. RFU, relative fluorescence units.
Rhodamine transport from the basolateral compartment into kidney monolayers grown in either the KEM or DAC conditions as described in Example 9 was measured on day 7 after seeding in the presence or absence of the P-gp inhibitor PSC-833 and/or OCT2 inhibitor Decynium-22 as follows: • 1. Remove media and rinse cells using PBS. • 2. Add fresh buffer under one of the following conditions (37° C.): • 1. 1 μM Decynium-22, 30 mins, • 2. 1 μM PSC-833, 30 mins, • 3. 1 μM Decynium-22 and 1 μM PSC-833, 30 mins, or • 4. Untreated Control, 30 mins. • 3. Add Rhodamine 123 at a final concentration 250 nM to the basolateral compartment and incubate for 30 minutes at 37° C. • 4. Analyse cellular accumulation of Rhodamine 123 using fluorescence (Excitation λ 490 nm, Emission λ 520 nm). • 5. Assess accumulation differences.

CCN1/C(=C/c2ccc3ccccc3[n+]2CC)C=Cc2ccccc21.[I-] [Decynium-22]
cellular accumulation of Rhodamine: decreased accumulation
